{
  "source": "patent US7252944B2",
  "about": "“Methods and compositions for modulating cell proliferation” (IRM LLC, priority 2003, dated 2007)",
  "key": {"[1]": {"test_system": "hog1-as1 mutant strain (hog1-27)", "assay": "Genome-wide expression analysis, hog1-as1 mutant strain under salt", "type": "cell-based, Saccharomyces cerevisiae", "conditions": "MUTS+1-NM-PP1 versus MUTS+DMSO; 1-NM-PP1 2 μM, 0.9 M NaCl", "procedure": "(§1) Genome-wide expression analysis: Total RNA preparation from hog1-27 strain was performed as described previously (Holstege et al., Cell 95, 717-28, 1998). To monitor the changes in expression caused by specific inhibition of Hog1 kinase, cultures of either wt or hog1-27 were incubated with 1-NM-PP1 (2 μM) for 30 minutes before harvesting (for control, 0.002% DMSO was added). To monitor the effect of osmotic stress, sodium chloride was added into either inhibitor-treated or DMSO-treated cultures to a final concentration of 0.9 M.\n(§2) The preparation of probe and the procedure for microassay experiments was performed as described in the literature. The output files from the scanner were uploaded into the GNF chip informatics server and expression profiles were analyzed using a built-in analysis program, ANOVA. Search for the common transcriptional regulatory elements was done using the promoter database of Saccharomyces cerevisiae at the Cold Spring Harbor Laboratory.\nFor DNA micro-array experiments, total RNAs were isolated from both the wt strain and the hog1-as1 mutant strain (hog1-27) treated with DMSO (WT+DMSO, MUT+DMSO), salt and DMSO (WTS+DMSO, MUTS+DMSO), salt and inhibitor (WTS+1-NM-PP1, MUTS+1-NM-PP1). For each experiment, RNA samples were prepared in duplicates, followed by the preparation of the corresponding biotinylated cRNA probes and hybridized to Yeast Genome S98 arrays (Affymetrix). Two expression profiles were first examined between duplicate samples to ensure reproducibility and the whole procedure was repeated three times. […] To analyze the number of genes affected by salt addition, expression profiles of MUTS+DMSO versus MUT+DMSO were compared by ANOVA (Brazma and Vilo, 2000). The expressions of 874 genes in the mutant strain were changed more than 2.5 fold by the addition of salt. Thus, the analysis covered almost the full complement of genes known to be affected by osmotic stress.\nThe effect of inhibition in the hog1-as1 mutant strain was examined by comparing the expression profiles of MUTS+1-NM-PP1 versus MUTS+DMSO. […]"}, "wt strain": {"test_system": "wt strain", "assay": "Genome-wide expression analysis, wt strain under salt", "type": "cell-based, Saccharomyces cerevisiae", "conditions": "1-NM-PP1 2 μM, 0.9 M NaCl", "procedure": "as §1, §2\nFor DNA micro-array experiments, total RNAs were isolated from both the wt strain and the hog1-as1 mutant strain (hog1-27) treated with DMSO (WT+DMSO, MUT+DMSO), salt and DMSO (WTS+DMSO, MUTS+DMSO), salt and inhibitor (WTS+1-NM-PP1, MUTS+1-NM-PP1). […]"}, "SHMT": {"test_system": "SHMT", "conditions": "background statement; cited from earlier work"}, "SHMT1 [2]": {"test_system": "SHMT1", "assay": "SHMT1 activity immunoprecipitated from sorbitol-stimulated SHMT1-HEK293 cells", "type": "cell-based, human", "conditions": "serum-starved SHMT1-HEK293 cells, 0.3 M sorbitol, 15 or 30 min; FIG. 3", "procedure": "Transfection and retroviral infection: SHMT1 (human homolog of yeast Shm2) with a C-terminal myc tag was cloned into pBabe puro plasmid and was transiently transfected into Bosc 23 cells using Effectene (Qiagen) as manufacturer's protocol. The harvested retroviruses was added to 5×10^5 HEK-293 cells for infection. After 48 hours the infected cells were selected in the presence of 2.5 µg/mL of puromycin. SHMT1-HEK293 cells were cultured in DMEM with 10% Bovine Calf Serum (BCS) and were serum-starved for 24 hr in DMEM with 0.5% BCS.\nTransient transfection and SHMT1 assay: MKK6b was cloned into pcDNA6Hismyc B vector (Invitrogen) and MKK6b-EE was further generated using Quick change protocol (Stratagene). Transient transfection of MKK6b-EE into SHMT1-HEK 293 cells was carried using Lipofectamine 2000 (Invitrogen) according to the manufacturer's protocol. […] SHMT1 or phosphorylated form of p38α was detected by immunobloting with either c-myc antibody (Santa Cruz) or phospho-p38 antibody (Cell Signal) using West pico supersignal kit (Pierce).\nFinally, to investigate whether SHMT1 was also an in vivo target of p38 MAP kinase, myc-tagged SHMT1 expressing HEK 293 stable cells were generated. […] SHMT1 was immunoprecipitated at different time points after stimulation and its enzymatic activity was measured as described above. […]"}, "Shm2": {"biological_target": "T1, Shm2 (Saccharomyces cerevisiae, UniProt P37291)", "T1 construct": "made in house; host or cells: Saccharomyces cerevisiae", "T1 sequence (P37291 1-469)": "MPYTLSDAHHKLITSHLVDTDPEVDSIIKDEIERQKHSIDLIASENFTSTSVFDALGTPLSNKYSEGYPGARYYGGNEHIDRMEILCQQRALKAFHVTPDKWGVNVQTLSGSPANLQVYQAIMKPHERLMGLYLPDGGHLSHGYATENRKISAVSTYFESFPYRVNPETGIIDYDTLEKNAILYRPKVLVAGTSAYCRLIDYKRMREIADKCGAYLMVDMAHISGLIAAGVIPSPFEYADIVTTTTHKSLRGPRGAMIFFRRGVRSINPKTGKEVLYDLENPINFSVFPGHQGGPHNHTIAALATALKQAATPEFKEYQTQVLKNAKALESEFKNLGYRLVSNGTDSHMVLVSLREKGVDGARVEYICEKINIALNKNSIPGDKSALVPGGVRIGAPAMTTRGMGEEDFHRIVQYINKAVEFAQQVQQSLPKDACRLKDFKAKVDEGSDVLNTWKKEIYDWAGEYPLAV", "assay": "Enzymatic assay for serine hydroxymethyltransferase 2 (Shm2) after pre-incubation with kinase", "type": "biochemical", "conditions": "in vitro; pre-incubation with p38α and 1 mM ATP, 30 min RT; FIG. 2D", "procedure": "(§3) Enzymatic assay for serine hydroxymethyltransferase 2 (Shm2): GST-Shm2 was purified from a yeast strain as described above and its enzymatic activity was measured as described earlier (Krishna Rao et al., Biochem J 343 Pt 1, 257-63, 1999) with minor modifications. To measure the effect of either Hog1-as1 or p38 kinases, Shm2 enzyme was pre-incubated with each kinase in presence of either 1 mM PE-ATP (for Hog1-as1) or 1 mM ATP (for p38) for 30 min at RT before adding to the reaction mixture.\nTo determine Shm2 activity, we measured the transfer of C^14-labeled one-carbon unit as described in the Krishna Rao et al., Biochem J 343 Pt 1, 257-63, 1999. In order to estimate the effect of phosphorylation, Shm2 was pre-incubated with or without Hog 1 kinase, prior to the C^14 transfer reaction."}, "SHMT1 [3]": {"biological_target": "T2, SHMT1 (Homo sapiens, UniProt P34896)", "T2 construct": "expressed in transfected cells; host or cells: HEK-293 cells, retroviral infection with pBabe puro and puromycin selection (SHMT1-HEK293)", "T2 sequence (P34896 1-483)": "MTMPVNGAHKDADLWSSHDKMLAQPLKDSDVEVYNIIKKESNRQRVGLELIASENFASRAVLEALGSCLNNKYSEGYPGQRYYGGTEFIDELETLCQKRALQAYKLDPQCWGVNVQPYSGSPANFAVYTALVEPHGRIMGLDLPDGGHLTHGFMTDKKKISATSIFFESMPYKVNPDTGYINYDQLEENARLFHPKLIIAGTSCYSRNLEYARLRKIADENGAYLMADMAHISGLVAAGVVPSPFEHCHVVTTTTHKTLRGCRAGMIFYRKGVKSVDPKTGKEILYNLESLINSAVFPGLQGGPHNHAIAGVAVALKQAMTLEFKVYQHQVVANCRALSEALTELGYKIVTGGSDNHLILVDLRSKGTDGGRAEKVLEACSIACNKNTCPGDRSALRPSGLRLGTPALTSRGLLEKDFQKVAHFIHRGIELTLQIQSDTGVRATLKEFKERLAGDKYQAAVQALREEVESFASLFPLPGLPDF", "assay": "SHMT1 enzymatic assay after phosphorylation by p38", "type": "biochemical", "conditions": "stated as in vitro; FIG. 4", "procedure": "as §3\nTransient transfection and SHMT1 assay: MKK6b was cloned into pcDNA6Hismyc B vector (Invitrogen) and MKK6b-EE was further generated using Quick change protocol (Stratagene). Transient transfection of MKK6b-EE into SHMT1-HEK 293 cells was carried using Lipofectamine 2000 (Invitrogen) according to the manufacturer's protocol. Immunoprecipitation procedure for SHMT1 from transfected cells was described previously (Shah and Shokat, Chem Biol 9, 35-47, 2002). SHMT1 enzymatic assay was carried out exactly as Shm2 assay as described above. SHMT1 or phosphorylated form of p38α was detected by immunobloting with either c-myc antibody (Santa Cruz) or phospho-p38 antibody (Cell Signal) using West pico supersignal kit (Pierce)."}},
  "data": [
    {"molecule": "CC(C)(C)n1nc(Cc2cccc3ccccc23)c2c(N)ncnc21", "note": "[1-NM-PP1]", "values": [
      {"measurement": "number of genes affected more than 2-fold by addition of inhibitor", "setting": "[1]", "value": 96, "unit": "genes"},
      {"measurement": "number of genes downregulated by addition of inhibitor", "setting": "[1]", "value": 81, "unit": "genes"},
      {"measurement": "number of genes upregulated by addition of inhibitor", "setting": "[1]", "value": 15, "unit": "genes"},
      {"measurement": "number of genes affected by addition of inhibitor", "setting": "wt strain", "value": 11, "unit": "genes"}
    ]},
    {"molecule": "CN(Cc1cnc2nc(N)nc(N)c2n1)c1ccc(C(=O)N[C@@H](CCC(=O)O)C(=O)O)cc1", "note": "[methotrexate]", "values": [
      {"measurement": "inhibition of SHMT activity", "setting": "SHMT", "value": "failed to inhibit SHMT activity significantly"}
    ]},
    {"molecule": "OC[C@@H](O)[C@@H](O)[C@H](O)[C@@H](O)CO", "note": "[sorbitol]", "values": [
      {"measurement": "SHMT1 enzymatic activity after sorbitol treatment", "setting": "SHMT1 [2]", "value": "decreased activity of SHMT1"}
    ]},
    {"molecule": "p38 MAP kinase: Active p38α MAP kinase purchased from Upstate Inc.; human homolog of Hog1", "values": [
      {"measurement": "modulation of Shm2 enzymatic activity upon phosphorylation", "setting": "Shm2", "value": "~50", "unit": "%"},
      {"measurement": "modulation of SHMT1 enzymatic activity upon phosphorylation", "setting": "SHMT1 [3]", "value": 30, "unit": "%"}
    ]}
  ]
}
